Measurements taken from PubChem BioAssay AID248 (DTP/NCI, 2004).
Several values for one entry are separate records, joined by “and”; a condition that tells them apart may be missing. Identical values can stand only once. Inconclusive results and toxic doses are left out.

Tested on: L1210 leukemia ip in BDF1 mice, survival T/C
Test: NCI In Vivo Anticancer Drug Screen. Data for tumor model L1210 Leukemia (intraperitoneal) in B6D2F1 (BDF1) mice
Settings: endpoint: mean survival time, higher = longer survival
Summary of the method: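 Transplantable tumor model; survival measured in treated vs vehicle control mice. Value = treated/control.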

[1] = dose: 100.0 mg/kg/injection, schedule: Q01DX001 (ip), vehicle: saline with Tween-80
[2] = dose: 100.0 mg/kg/injection, schedule: Q01DX009 (ip), vehicle: saline with Tween-80
[3] = dose: 100.0 mg/kg/injection, schedule: Q04DX002 (ip), vehicle: Klucel (hydroxypropylcellulose) (HPC)
[4] = dose: 100.0 mg/kg/injection, schedule: Q04DX003 (ip), vehicle: saline with Tween-80
[5] = dose: 200.0 mg/kg/injection, schedule: Q01DX001 (ip), vehicle: saline with Tween-80
[6] = dose: 200.0 mg/kg/injection, schedule: Q01DX009 (ip), vehicle: saline with Tween-80
[7] = dose: 200.0 mg/kg/injection, schedule: Q04DX002 (ip), vehicle: Klucel (hydroxypropylcellulose) (HPC)
[8] = dose: 200.0 mg/kg/injection, schedule: Q04DX003 (ip), vehicle: saline with Tween-80
[9] = dose: 400.0 mg/kg/injection, schedule: Q01DX001 (ip), vehicle: saline with Tween-80
[10] = dose: 400.0 mg/kg/injection, schedule: Q01DX009 (ip), vehicle: saline with Tween-80
[11] = dose: 400.0 mg/kg/injection, schedule: Q04DX002 (ip), vehicle: Klucel (hydroxypropylcellulose) (HPC)
[12] = dose: 400.0 mg/kg/injection, schedule: Q04DX003 (ip), vehicle: saline with Tween-80
[13] = dose: 100.0 mg/kg/injection, schedule: Q04DX002 (ip), vehicle: saline
[14] = dose: 200.0 mg/kg/injection, schedule: Q04DX002 (ip), vehicle: saline
[15] = dose: 400.0 mg/kg/injection, schedule: Q04DX002 (ip), vehicle: saline
[16] = dose: 100.0 mg/kg/injection, schedule: Q01DX009 (ip), vehicle: saline
[17] = dose: 100.0 mg/kg/injection, schedule: Q01DX001 (ip), vehicle: saline
[18] = dose: 400.0 mg/kg/injection, schedule: Q01DX001 (ip), vehicle: saline
[19] = dose: 100.0 mg/kg/injection, schedule: Q01DX009 (ip), vehicle: Klucel (hydroxypropylcellulose) (HPC)
[20] = dose: 200.0 mg/kg/injection, schedule: Q01DX009 (ip), vehicle: Klucel (hydroxypropylcellulose) (HPC)
[21] = dose: 50.0 mg/kg/injection, schedule: Q01DX009 (ip), vehicle: saline with Tween-80
[22] = dose: 200.0 mg/kg/injection, schedule: Q01DX001 (ip), vehicle: other
[23] = dose: 400.0 mg/kg/injection, schedule: Q01DX001 (ip), vehicle: other
[24] = dose: 100.0 mg/kg/injection, schedule: Q01DX001 (ip), vehicle: other
[25] = dose: 200.0 mg/kg/injection, schedule: Q01DX001 (ip), vehicle: saline

In the case of `Cc1cc(Cl)ccc1OC(=O)Nc1ccccc1Cl`, the T/C [1] is reported as 97 % of control, the T/C [2] is reported as 102 % of control and 106 % of control and the T/C [3] is reported as 103 % of control. For the same compound, the T/C (dose: 100.0 mg/kg/injection, schedule: Q04DX002 (ip), vehicle: saline with Tween-80) was 105 % of control and 89 % of control, the T/C [4] was 96 % of control and the T/C [5] was 94 % of control. For the same compound, the T/C [6] was 100 % of control and 88 % of control, the T/C [7] was 124 % of control and the T/C (dose: 200.0 mg/kg/injection, schedule: Q04DX002 (ip), vehicle: saline with Tween-80) was 92 % of control and 100 % of control. The T/C [8] was 100 % of control, the T/C [9] was 99 % of control and the T/C [10] was 102 % of control and 106 % of control. The T/C [11] was 106 % of control, the T/C (dose: 400.0 mg/kg/injection, schedule: Q04DX002 (ip), vehicle: saline with Tween-80) was 92 % of control and 105 % of control and the T/C [12] was 96 % of control.

For `OCC(O)C(O)C(O)CO` (stereo not drawn), the T/C [13] was 107 % of control, the T/C [14] was 104 % of control and the T/C [15] was 96 % of control.

`COc1cc(Cc2c3cc4c(cc3cc[n+]2C)OCO4)c(Oc2cc(Cc3c4cc5c(cc4cc[n+]3C)OCO5)ccc2OC)cc1OC` was tested, and the T/C (dose: 3.12 mg/kg/injection, schedule: Q04DX003 (ip), vehicle: saline with Tween-80) was 97 % of control, the T/C (dose: 6.25 mg/kg/injection, schedule: Q04DX003 (ip), vehicle: saline with Tween-80) was 95 % of control and the T/C (dose: 12.5 mg/kg/injection, schedule: Q04DX003 (ip), vehicle: saline with Tween-80) was 95 % of control.

For `CC1(C#N)CC(C#N)Nc2ccccc2N1` (stereo not drawn), the T/C [16] was 104 % of control and the T/C (dose: 200.0 mg/kg/injection, schedule: Q01DX009 (ip), vehicle: saline) was 98 % of control.

With `Cc1c(C)c(C)c(CNNC(=S)Nc2ccc(S(=O)(=O)N3CCCCC3)cc2)c(C)c1C` the T/C [3] was 104 % of control, the T/C [7] was 92 % of control and the T/C [11] was 95 % of control.

In the case of `OC(OCC(COC(O)C(Br)Br)(COC(O)C(Br)Br)COC(O)C(Br)Br)C(Br)Br` (stereo not drawn), the T/C (dose: 50.0 mg/kg/injection, schedule: Q01DX001 (ip), vehicle: carboxymethylcellulose (CMC)) is reported as 101 % of control, the T/C (dose: 100.0 mg/kg/injection, schedule: Q01DX001 (ip), vehicle: carboxymethylcellulose (CMC)) is reported as 95 % of control and the T/C (dose: 200.0 mg/kg/injection, schedule: Q01DX001 (ip), vehicle: carboxymethylcellulose (CMC)) is reported as 92 % of control. The T/C (dose: 400.0 mg/kg/injection, schedule: Q01DX001 (ip), vehicle: carboxymethylcellulose (CMC)) was 95 % of control.

For `Cc1ccc(C(c2ccccc2)c2ccccc2)cc1C`, the T/C [17] was 97 % of control and the T/C [18] was 88 % of control.

In the case of `CC(C)P(=O)(OCc1ccccc1)C(C)C`, the T/C [19] is reported as 97 % of control, the T/C [20] is reported as 94 % of control and the T/C (dose: 400.0 mg/kg/injection, schedule: Q01DX009 (ip), vehicle: Klucel (hydroxypropylcellulose) (HPC)) is reported as 89 % of control.

`CC(=O)OC1CCC2(C)C(=CCC3C2CCC2(C)C(C(C)N)CCC32)C1` (stereo not drawn) was tested, and the T/C (dose: 100.0 mg/kg/injection, schedule: Q01DX001 (sc), vehicle: steriod suspending solution) was 90 % of control and the T/C (dose: 400.0 mg/kg/injection, schedule: Q01DX001 (sc), vehicle: steriod suspending solution) was 90 % of control.

For `CC(=O)n1c2c(n(C(C)=O)c1=O)CCCC2`, the T/C [1] was 102 % of control, the T/C [5] was 98 % of control and the T/C [9] was 102 % of control.

With `ClC(Cl)C1OCCOCCO1` the T/C [3] was 97 % of control, the T/C [7] was 100 % of control and the T/C [11] was 97 % of control.

In the case of `CC(C)(CO)CN1CCCCC1`, the T/C [21] is reported as 93 % of control and the T/C [2] is reported as 93 % of control.

In the case of `CCCCOc1ccc(N)cn1`, the T/C (dose: 25.0 mg/kg/injection, schedule: Q01DX009 (ip), vehicle: saline) is reported as 95 % of control, the T/C (dose: 50.0 mg/kg/injection, schedule: Q01DX009 (ip), vehicle: saline) is reported as 95 % of control and the T/C [16] is reported as 113 % of control. For the same compound, the T/C (dose: 100.0 mg/kg/injection, schedule: Q04DX003 (ip), vehicle: saline) was 96 % of control.

In the case of `c1ccc(CC2SCCCS2)cc1`, the T/C [2] is reported as 103 % of control, the T/C [4] is reported as 108 % of control and the T/C [6] is reported as 88 % of control. The T/C [8] was 95 % of control, the T/C [10] was 99 % of control and the T/C [12] was 95 % of control.

For `CCCCCCCCCCCCCCCc1cc(O)cc(O)c1`, the T/C (dose: 50.0 mg/kg/injection, schedule: Q01DX001 (ip), vehicle: other) was 88 % of control, the T/C [22] was 95 % of control and the T/C [23] was 93 % of control.

In the case of `S=C([S][Sn]([c]1ccccc1)([c]1ccccc1)[c]1ccccc1)N(c1ccccc1)c1ccccc1`, the T/C (dose: 100.0 mg/kg/injection, schedule: Q01DX001 (ip), vehicle: steriod suspending solution) is reported as 89 % of control, the T/C (dose: 200.0 mg/kg/injection, schedule: Q01DX001 (ip), vehicle: steriod suspending solution) is reported as 98 % of control and the T/C (dose: 400.0 mg/kg/injection, schedule: Q01DX001 (ip), vehicle: steriod suspending solution) is reported as 104 % of control.

With `C1=CCC2CN(CCCN3CCOCC3)CC2C1` (stereo not drawn) the T/C [1] was 103 % of control, the T/C [5] was 108 % of control and the T/C [9] was 105 % of control.

With `CCOC(=O)C(C)(C)CN(CC(C)(C)C(=O)OCC)C(C)(C)CO` the T/C [24] was 95 % of control, the T/C [22] was 98 % of control and the T/C [23] was 87 % of control.

With `CCCCCCCCCCCCC(=O)N1CCCCCC1` the T/C [13] was 102 % of control, the T/C [14] was 102 % of control and the T/C [15] was 91 % of control.

In the case of `NNC(=O)C1CC2C(=O)NNC(=O)C2C1C(=O)O` (stereo not drawn), the T/C [17] is reported as 102 % of control, the T/C [25] is reported as 107 % of control and the T/C [18] is reported as 113 % of control.

For `COc1ccc(-c2oc3ccccc3c(=O)c2O)cc1`, the T/C (dose: 50.0 mg/kg/injection, schedule: Q01DX001 (ip), vehicle: saline) was 104 % of control, the T/C [17] was 101 % of control and the T/C [25] was 106 % of control. For the same compound, the T/C [18] was 98 % of control.

For `CCN(C(=O)c1cccc(C(=O)N(CC)c2ccccc2C)c1)c1ccccc1C`, the T/C [21] was 97 % of control, the T/C [2] was 90 % of control and the T/C [4] was 99 % of control. For the same compound, the T/C [6] was 89 % of control and the T/C [8] was 90 % of control.

For `CC1C(=O)C2CCCCC2C1=O` (stereo not drawn), the T/C [17] was 96 % of control, the T/C [25] was 96 % of control and the T/C [18] was 100 % of control.

`CCCCCCCCCCC(=O)OCC1OC2C(Oc3nc(=N)ccn32)C1OC(=O)CCCCCCCCCC` (stereo not drawn) was tested, and the T/C (dose: 25.0 mg/kg/injection, schedule: Q01DX009 (ip), vehicle: water) was 166 % of control and the T/C (dose: 50.0 mg/kg/injection, schedule: Q01DX009 (ip), vehicle: water) was 210 % of control.

In the case of `N#CCCC(=O)c1ccncc1`, the T/C [4] is reported as 96 % of control, the T/C [8] is reported as 107 % of control and the T/C [12] is reported as 104 % of control.

For `FN1C(F)(F)C(F)(F)C(F)(F)C(F)(F)C1(F)F`, the T/C (dose: 100.0 mg/kg/injection, schedule: Q01DX001 (ip), vehicle: acetone) was 100 % of control, the T/C (dose: 200.0 mg/kg/injection, schedule: Q01DX001 (ip), vehicle: acetone) was 87 % of control and the T/C (dose: 400.0 mg/kg/injection, schedule: Q01DX001 (ip), vehicle: acetone) was 92 % of control.

`CN1CN(c2ccccc2)C2(CCN(CCc3cc4ccccc4o3)CC2)C1=O` was tested, and the T/C (dose: 100.0 mg/kg/injection, schedule: Q01DX001 (ip), vehicle: Klucel (hydroxypropylcellulose) (HPC)) was 96 % of control, the T/C (dose: 200.0 mg/kg/injection, schedule: Q01DX001 (ip), vehicle: Klucel (hydroxypropylcellulose) (HPC)) was 95 % of control and the T/C (dose: 400.0 mg/kg/injection, schedule: Q01DX001 (ip), vehicle: Klucel (hydroxypropylcellulose) (HPC)) was 101 % of control.

In the case of `O=C(O)/C(Cc1cn[nH]n1)=N\O`, the T/C [24] is reported as 95 % of control, the T/C [22] is reported as 101 % of control and the T/C [23] is reported as 101 % of control.

In the case of `COC1CCC(C2=NC3CCCCC3SC2)CC1` (stereo not drawn), the T/C (dose: 100.0 mg/kg/injection, schedule: Q04DX002 (sc), vehicle: olive oil, sesame oil, peanut oil) is reported as 97 % of control, the T/C (dose: 200.0 mg/kg/injection, schedule: Q04DX002 (sc), vehicle: olive oil, sesame oil, peanut oil) is reported as 107 % of control and the T/C (dose: 400.0 mg/kg/injection, schedule: Q04DX002 (sc), vehicle: olive oil, sesame oil, peanut oil) is reported as 100 % of control.

With `N#CSC(C(=O)c1ccccc1)c1ccccc1` (stereo not drawn) the T/C [4] was 92 % of control, the T/C [8] was 91 % of control and the T/C [12] was 92 % of control.

For `COc1cc(OC)c(NC(=O)CCl)cc1Cl`, the T/C [19] was 104 % of control and the T/C [20] was 98 % of control.

`CCOC(=S)SCCC(=O)O` was tested, and the T/C [2] was 95 % of control.
